Values of other authors as cited in patent EP3952993B1, “METHOD OF TREATING FUMARIC ACID ESTER-RESISTANT PLAQUE PSORIASIS” (Almirall S.A., priority 2019, dated 2020).
Where a name gives a salt, the structure may show the parent alone.

Tested on: patients diagnosed with moderate-to-severe psoriasis
Conditions: up to 720 mg/daily; 16 weeks; vs Fumaderm and placebo

COC(=O)/C=C/C(=O)OC [DMF, dimethyl fumarate]
co-primary endpoints: PASI 75 and clear/almost clear in the PGA: significantly superior to placebo and non-inferior to FAEs
